Molecular target: T1, Prostaglandin G/H synthase 1 (Ovis aries) (UniProt P05979)
T1 sequence (whole entry): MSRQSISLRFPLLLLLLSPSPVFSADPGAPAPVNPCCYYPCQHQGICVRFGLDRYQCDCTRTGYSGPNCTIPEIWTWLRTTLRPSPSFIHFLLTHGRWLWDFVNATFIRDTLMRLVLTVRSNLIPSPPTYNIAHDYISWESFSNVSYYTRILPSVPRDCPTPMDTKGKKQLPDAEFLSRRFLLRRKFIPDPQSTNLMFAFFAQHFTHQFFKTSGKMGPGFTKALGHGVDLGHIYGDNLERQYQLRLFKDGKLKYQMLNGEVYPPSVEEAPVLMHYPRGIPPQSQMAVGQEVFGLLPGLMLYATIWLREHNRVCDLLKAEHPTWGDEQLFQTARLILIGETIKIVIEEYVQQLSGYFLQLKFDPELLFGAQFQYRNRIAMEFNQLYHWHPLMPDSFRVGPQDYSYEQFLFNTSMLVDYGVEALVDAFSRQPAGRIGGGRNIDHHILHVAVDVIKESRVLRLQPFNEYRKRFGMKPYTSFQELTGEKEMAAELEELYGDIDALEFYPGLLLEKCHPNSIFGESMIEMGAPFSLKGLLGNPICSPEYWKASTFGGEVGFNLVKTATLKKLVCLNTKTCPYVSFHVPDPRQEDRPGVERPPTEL
Conditions: 1 uM
Description: Binding affinity to ovine COX1 at 1 uM to 25 uM

| Kinact [µM] | SMILES |
| --- | --- |
| 4 | CC[C@@H](CO)NC(=O)Cc1c(C)n(C(=O)c2ccc(Cl)cc2)c2ccc(OC)cc12 |
| 2.3 | CC[C@H](CO)NC(=O)Cc1c(C)n(C(=O)c2ccc(Cl)cc2)c2ccc(OC)cc12 |
